Experimental data published in patent US10961238B2, “Modulators of hedgehog (Hh) signaling pathway” (E-THERAPEUTICS PLC, priority 2016, dated 2021).

Each compound was assayed on C3H10T1/2 cells (assay: C3H assay: differentiation of C3H10T1/2 cells by mSHH, measurement of alkaline phosphatase). Settings: Mus musculus, C3H 10T1/2; C3H10T1/2 cells stimulated with mSHH for 72 hours; alkaline phosphatase activity; read-out: IC50 Ranges.
Format: cell-based, mouse

Question: For Cc1noc(C)c1NC(=O)[C@H]1C[C@@H](S(=O)(=O)N2CCC(c3ccncc3)CC2)C1 [Compound 295, cis-N-(3,5-dimethyl-1,2-oxazol-4-yl)-3-(4-pyridin-4-ylpiperidin-1-yl) sulfonylcyclobutane-1-carboxamide], which IC50 is on record?
Answer: 1000 to 10000 nM

Question: For O=C(NC1(C(F)(F)F)CC1)[C@H]1C[C@@H](S(=O)(=O)N2CCC(c3c[nH]c4ncccc34)CC2)C1 [Compound 297, cis-3-[4-(1H-pyrrolo[2,3-b]pyridin-3-yl)piperidin-1-yl]sulfonyl-N-[1-(trifluoromethyl)cyclopropyl] cyclobutane-1-carboxamide], which IC50 is on record?
Answer: 10 to 100 nM

Question: CC(C)(C)OC(=O)N1CC(S(=O)(=O)N2CCC(c3nc4ccccc4[nH]3)CC2)C1 [Compound 299, tert-butyl 3-[4-(1H-benzimidazol-2-yl)piperidin-1-yl]sulfonylaze-tidine-1-carboxylate] was tested. Which IC50 did it give?
Answer: 1000 to 10000 nM

Question: With O=C(NC1(C(F)(F)F)CC1)N1CC(S(=O)(=O)N2CCC(c3nc4ccccc4[nH]3)CC2)C1 [Compound 300, 3-[4-(1H-benzimidazol-2-yl)piperidin-1-yl]sulfonyl-N-[1-(trifluoromethyl)cyclopropyl] azetidine-1-carboxamide] as the compound, how does the IC50 read?
Answer: 1000 to 10000 nM

Question: CC(C)(C)OC(=O)N1CC(S(=O)(=O)N2CCC(c3ccccc3)CC2)C1 [Compound 301, tert-butyl 3-(4-phenylpiperidin-1-yl)sulfonylaze-tidine-1-carboxylate] was tested. Which IC50 did it give?
Answer: 100 to 1000 nM

Question: Which IC50 does the source give for Cc1cc(Cl)ccc1C1CCN(S(=O)(=O)C2CN(C(=O)OC(C)(C)C)C2)CC1 [Compound 302, tert-butyl 3-[4-(4-chloro-2-methylphenyl)piperidin-1-yl]sulfonylaze-tidine-1-carboxylate] here?
Answer: 100 to 1000 nM

Question: Which IC50 does the source give for CC(C)(C)OC(=O)N1CC(S(=O)(=O)N2CCC(c3ccc(C#N)cc3)CC2)C1 [Compound 303, tert-butyl 3-[4-(4-cyanophenyl)piperidin-1-yl]sulfonylaze-tidine-1-carboxylate] here?
Answer: 100 to 1000 nM

Question: How did the IC50 turn out when CC(C)(C)OC(=O)N1CC(S(=O)(=O)N2CCC(c3ccc(Cl)cc3)CC2)C1 [Compound 304, tert-butyl 3-[4-(4-chlorophenyl)piperidin-1-yl]sulfonylaze-tidine-1-carboxylate] was run?
Answer: 100 to 1000 nM

Question: With CC(C)N(CC(=O)N1CC(S(=O)(=O)N2CCC(c3ccccc3)CC2)C1)C(C)C [Compound 306, 2-[di(propan-2-yl)amino]-1-[3-(4-phenylpiperidin-1-yl)sulfonylaze-tidin-1-yl]ethanone] as the compound, how does the IC50 read?
Answer: 100 to 1000 nM

Question: With C[C@@H](C(=O)N1CC(S(=O)(=O)N2CCC(c3ccccc3)CC2)C1)N(C)C [Compound 307, 2-(dimethylamino)-1-[3-(4-phenyl-piperidin-1-yl)sulfonylaze-tidin-1-yl]propan-1-one] as the compound, how does the IC50 read?
Answer: 1000 to 10000 nM

Question: Which IC50 does the source give for Cc1noc(C)c1NC(=O)[C@H]1C[C@@H](S(=O)(=O)N2CCC(c3c[nH]c4ncccc34)CC2)C1 [Compound 309, cis-N-(3,5-dimethyl-1,2-oxazol-4-yl)-3-[4-(1H-pyrrolo [2,3-b]pyridin-3-yl)piperidin-1-yl]sulfonylcycl obutane-1-carboxamide] here?
Answer: 10 to 100 nM

Question: How did the IC50 turn out when Cc1noc(C)c1NC(=O)[C@H]1C[C@H](S(=O)(=O)N2CCC(c3c[nH]c4ncccc34)CC2)C1 [Compound 310, trans-N-(3,5-dimethyl-1,2-oxazol-4-yl)-3-[4-(1H-pyrrolo [2,3-b]pyridin-3-yl)piperidin-1-yl]sulfonylcycl obutane-1-carboxamide] was run?
Answer: 100 to 1000 nM

Question: Which IC50 does the source give for O=S(=O)(C1CN(c2nc(-c3ccccc3)cs2)C1)N1CCC(c2c[nH]c3ncccc23)CC1 [Compound 311, 4-phenyl-2-[3-[4-(1H-pyrrolo[2,3-b]pyridin-3-yl)piperidin-1-yl]sulfonylazetidin-1-yl]-1,3-thiazole] here?
Answer: 10 to 100 nM

Question: How did the IC50 turn out when O=S(=O)(C1CN(c2nc3ccccc3s2)C1)N1CCC(c2c[nH]c3ncccc23)CC1 [Compound 312, 2-[3-[4-(1H-pyrrolo[2,3-b]pyridin-3-yl)piperidin-1-yl]sulfonylaze-tidin-1-yl]-1,3-benzothiazole] was run?
Answer: 10 to 100 nM

Question: With CN1CCC[C@H]1C(=O)N1CC(S(=O)(=O)N2CCC(c3ccccc3)CC2)C1 [Compound 315, [(2S)-1-methyl-pyrrolidin-2-yl]-[3-(4-phenylpiperidin-1-yl)sulfonylaze-tidin-1-yl]methanone] as the compound, how does the IC50 read?
Answer: 1000 to 10000 nM

Question: How did the IC50 turn out when Cc1noc(C)c1C(=O)N1CC(S(=O)(=O)N2CCC(c3ccccc3)CC2)C1 [Compound 316, (3,5-dimethyl-1,2-oxazol-4-yl)-[3-(4-phenylpiperidin-1-yl)sulfonylaze-tidin-1-yl]methanone] was run?
Answer: 1000 to 10000 nM

Question: With Cc1cc(Cl)ccc1C1CCN(S(=O)(=O)C2CN(C(=O)CN(C(C)C)C(C)C)C2)CC1 [Compound 317, 1-[3-[4-(4-chloro-2-methylphenyl)piperidin-1-yl]sulfonylaze-tidin-l-yl]-2-[di(propan-2-yl)amino] ethanone] as the compound, how does the IC50 read?
Answer: 100 to 1000 nM

Question: Cc1cc(Cl)ccc1C1CCN(S(=O)(=O)C2CN(C(=O)[C@@H]3CCCN3C)C2)CC1 [Compound 318, [3-[4-(4-chloro-2-methylphenyl)piperidin-1-yl]sulfonylaze-tidin-1-yl]-[(2S)-1-methylpyrrolidin-2-yl]methanone] was tested. Which IC50 did it give?
Answer: 1000 to 10000 nM

Question: How did the IC50 turn out when O=C(OC1CCOCC1)N1CC(S(=O)(=O)N2CCC(c3ccc(Cl)cc3)CC2)C1 [Compound 320, oxan-4-yl 3-[4-(4-chlorophenyl)piperidin-1-yl]sulfonylaze-tidine-1-carboxylate] was run?
Answer: 100 to 1000 nM

Question: Which IC50 does the source give for CC(C)[C@H](CO)NC(=O)N1CC(S(=O)(=O)N2CCC(c3ccc(Cl)cc3)CC2)C1 [Compound 321, 3-[4-(4-chlorophenyl)piperidin-1-yl]sulfonyl-N-[(2R)-1-hydroxy-3-methylbutan-2-yl]azetidine-1-carboxamide] here?
Answer: 10 to 100 nM

Question: Which IC50 does the source give for Cc1noc(C)c1NC(=O)N1CC(S(=O)(=O)N2CCC(c3ccc(Cl)cc3)CC2)C1 [Compound 322, 3-[4-(4-chlorophenyl)piperidin-1-yl]sulfonyl-N-(3,5-dimethyl-1,2-oxazol-4-yl)azetidine-1-carboxamide] here?
Answer: 10 to 100 nM

Question: With CC(C)(C(=O)N1CC(S(=O)(=O)N2CCC(c3c[nH]c4ncccc34)CC2)C1)C(F)(F)F [Compound 323, 3,3,3-trifluoro-2,2-dimethyl-1-[3-[4-(1H-pyrrolo[2,3-b]pyridin-3-yl)piperidin-1-yl]sulfonylaze-tidin-1-yl]propan-1-one] as the compound, how does the IC50 read?
Answer: 10 to 100 nM

Question: CC(C)N(CC(=O)N1CC(S(=O)(=O)N2CCC(c3ccc(C#N)cc3)CC2)C1)C(C)C [Compound 324, 4-[1-[1-[2-[di(propan-2-yl)amino]acetyl]azetidin-3-yl]sulfonylpiper-idin-4-yl]benzonitrile] was tested. Which IC50 did it give?
Answer: 10 to 100 nM

Question: Which IC50 does the source give for CN(C)CC(=O)N1CC(S(=O)(=O)N2CCC(c3c[nH]c4ncccc34)CC2)C1 [Compound 325, 2-(dimethylamino)-1-[3-[4-(1H-pyrrolo[2,3-b]pyridin-3-yl)piperidin-1-yl]sulfonylaze-tidin-1-yl]ethanone] here?
Answer: 1000 to 10000 nM

Question: With CC(C)N(CC(=O)N1CC(S(=O)(=O)N2CCC(c3c[nH]c4ncccc34)CC2)C1)C(C)C [Compound 326, 2-[di(propan-2-yl)amino]-1-[3-[4-(1H-pyrrolo [2,3-b]pyridin-3-yl)piperidin-1-yl]sulfonylaze-tidin-1-yl]ethanone] as the compound, how does the IC50 read?
Answer: 10 to 100 nM

Question: With CC(C)(C)OC(=O)N1CC(S(=O)(=O)N2CCC(c3ccc(F)cc3)CC2)C1 [Compound 327, tert-butyl 3-[4-(4-fluorophenyl)piperidin-l-yl]sulfonylaze-tidine-1-carboxylate] as the compound, how does the IC50 read?
Answer: 100 to 1000 nM

Question: Which IC50 does the source give for CN(C)CC(=O)N1CC(S(=O)(=O)N2CCC(c3coc4cccnc34)CC2)C1 [Compound 329, 2-(dimethylamino)-1-[3-(4-furo[3,2-b]pyridin-3-ylpiperidin-1-yl)sulfonylaze-tidin-1-yl]ethanone] here?
Answer: 1000 to 10000 nM

Question: For CC(C)N(CC(=O)N1CC(S(=O)(=O)N2CCC(c3coc4cccnc34)CC2)C1)C(C)C [Compound 330, 2-[di(propan-2-yl)amino]-1-[3-(4-furo[3,2-b]pyridin-3-ylpiperidin-1-yl)sulfonylaze-tidin-1-yl]ethanone], which IC50 is on record?
Answer: 10 to 100 nM

Question: N#Cc1ccc(C2CCN(S(=O)(=O)C3CN(C(=O)NC4(C(F)(F)F)CC4)C3)CC2)cc1 [Compound 331, 3-[4-(4-cyanophenyl)piperidin-1-yl]sulfonyl-N-[1 (trifluoromethyl)cyclopropyl] azetidine-1-carboxamide] was tested. Which IC50 did it give?
Answer: 10 to 100 nM

Question: With C[C@@H](NC(=O)N1CC(S(=O)(=O)N2CCC(c3c[nH]c4ncccc34)CC2)C1)C(F)(F)F [Compound 332, 3-[4-(1H-pyrrolo [2,3-b]pyridin-3-yl)piperidin-1-yl]sulfonyl-N-[(2R)-1,1,1-trifluoropropan-2-yl]azetidine-1-carboxamide] as the compound, how does the IC50 read?
Answer: 10 to 100 nM

Question: Which IC50 does the source give for N#Cc1ccc(NC(=O)N2CC(S(=O)(=O)N3CCC(c4c[nH]c5ncccc45)CC3)C2)cc1 [Compound 335, N-(4-cyanophenyl)-3-[4-(1H-pyrrolo [2,3-b]pyridin-3-yl)piperidin-1-yl]sulfonylaze-tidine-1-carboxamide] here?
Answer: 10 to 100 nM

Question: Which IC50 does the source give for CC(C)(C)OC(=O)NC1CC(S(=O)(=O)N2CCC(c3c[nH]c4ncccc34)CC2)C1 (stereo not drawn) [Compound 336, tert-butyl N-[3-[4-(1H-pyrrolo[2,3-b]pyridin-3-yl)piperidin-1-yl]sulfonylcyclobutyl] carbamate] here?
Answer: 10 to 100 nM

Question: With O=S(=O)(C1CN(c2nc3ccccc3s2)C1)N1CCC(c2ccncc2)CC1 [Compound 337, 2-[3-(4-pyridin-4-ylpiperidin-1-yl)sulfonylaze-tidin-1-yl]-1,3-benzothiazole] as the compound, how does the IC50 read?
Answer: 100 to 1000 nM

Question: Which IC50 does the source give for O=S(=O)(C1CN(c2nc3ccccc3o2)C1)N1CCC(c2c[nH]c3ncccc23)CC1 [Compound 338, 2-[3-[4-(1H-pyrrolo[2,3-b]pyridin-3-yl)piperidin-1-yl]sulfonylaze-tidin-1-yl]-1,3-benzoxazole] here?
Answer: 10 to 100 nM

Question: How did the IC50 turn out when CC(C)(C)OC(=O)N1CC(S(=O)(=O)N2CCC(c3c[nH]c4cnccc34)CC2)C1 [Compound 339, tert-butyl 3-[4-(1H-pyrrolo[2,3-c]pyridin-3-yl)piperidin-1-yl]sulfonylaze-tidine-1-carboxylate] was run?
Answer: 1000 to 10000 nM

Question: With CN(C(=O)N1CC(S(=O)(=O)N2CCC(c3ccc(F)cc3)CC2)C1)C1CC1 [Compound 340, N-cyclopropyl-3-[4-(4-fluorophenyl)piperidin-1-yl]sulfonyl-N-methylazetidine-1-carboxamide] as the compound, how does the IC50 read?
Answer: 1000 to 10000 nM
